The values below come from ChEMBL document CHEMBL1142279, “Optimization of 2,3,5-trisubstituted pyridine derivatives as potent allosteric Akt1 and Akt2 inhibitors” (Bioorg Med Chem Lett, 2008).

In data set [1] the target is RAC-beta serine/threonine-protein kinase (Homo sapiens) (UniProt P31751). The data set is described as follows: Inhibition of human recombinant Akt2.
The target of data set [2] is RAC-alpha serine/threonine-protein kinase (Homo sapiens) (UniProt P31749). The data set is described as follows: Inhibition of human recombinant Akt1.
Chain of RAC-alpha serine/threonine-protein kinase (Homo sapiens) (P31749 whole entry): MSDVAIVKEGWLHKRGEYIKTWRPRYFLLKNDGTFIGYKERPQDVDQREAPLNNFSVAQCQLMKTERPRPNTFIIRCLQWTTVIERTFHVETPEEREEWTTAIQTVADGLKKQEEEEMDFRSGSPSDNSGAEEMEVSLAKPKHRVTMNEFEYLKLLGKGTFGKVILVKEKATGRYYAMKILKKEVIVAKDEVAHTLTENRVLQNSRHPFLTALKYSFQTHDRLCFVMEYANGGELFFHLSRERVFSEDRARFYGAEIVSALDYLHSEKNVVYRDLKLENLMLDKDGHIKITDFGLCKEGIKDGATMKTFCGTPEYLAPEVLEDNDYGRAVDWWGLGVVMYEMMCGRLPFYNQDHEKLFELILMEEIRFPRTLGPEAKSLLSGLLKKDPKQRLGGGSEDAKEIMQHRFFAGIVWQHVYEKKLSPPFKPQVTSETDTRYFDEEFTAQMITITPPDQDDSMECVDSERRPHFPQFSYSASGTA
Data set [3] has as its target RAC-gamma serine/threonine-protein kinase (Homo sapiens) (UniProt Q9Y243). The data set is described as follows: Inhibition of human recombinant Akt3.
The target of data set [4] is RAC-beta serine/threonine-protein kinase (Homo sapiens) (UniProt P31751). The data set can be described thus: Inhibition of Akt2 in human C33a cells. The data set is classed as cell-based.
In data set [5] the target is RAC-alpha serine/threonine-protein kinase (Homo sapiens) (UniProt P31749). The data set is described as follows: Inhibition of Akt1 in human C33a cells. Format: cell-based.
A short description of data set [6]: Inhibition of SGK.
Data set [7] can be described thus: Volume of distribution at steady state in dog at 0.25 mg/kg, iv. Format: ADME, organism-based, Canis lupus familiaris. Also noted: dose 0.25 mg/kg, route intravenous. To be noted: in vivo, read-out: Vdss.
Data set [8] in a line: Inhibition of PKC.
Data set [9] can be described thus: Clearance in dog at 0.25 mg/kg, iv. The data set is classed as ADME, organism-based, Canis lupus familiaris. Details: dose 0.25 mg/kg, route intravenous. Particulars: in vivo.
Data set [10] can be described thus: Inhibition of PKA.
Data set [11] is described as follows: Half life in dog at 0.25 mg/kg, iv. Format: ADME, organism-based, Canis lupus familiaris. Details: dose 0.25 mg/kg, route intravenous. Particulars: in vivo.
Data set [12] has as its target Protein kinase C alpha type (Homo sapiens) (UniProt P17252). The data set is described as follows: Inhibition of PKCalpha.

Where only a bound is given, the exact number is not on record here.

Chain of RAC-beta serine/threonine-protein kinase (Homo sapiens) (P31751 whole entry): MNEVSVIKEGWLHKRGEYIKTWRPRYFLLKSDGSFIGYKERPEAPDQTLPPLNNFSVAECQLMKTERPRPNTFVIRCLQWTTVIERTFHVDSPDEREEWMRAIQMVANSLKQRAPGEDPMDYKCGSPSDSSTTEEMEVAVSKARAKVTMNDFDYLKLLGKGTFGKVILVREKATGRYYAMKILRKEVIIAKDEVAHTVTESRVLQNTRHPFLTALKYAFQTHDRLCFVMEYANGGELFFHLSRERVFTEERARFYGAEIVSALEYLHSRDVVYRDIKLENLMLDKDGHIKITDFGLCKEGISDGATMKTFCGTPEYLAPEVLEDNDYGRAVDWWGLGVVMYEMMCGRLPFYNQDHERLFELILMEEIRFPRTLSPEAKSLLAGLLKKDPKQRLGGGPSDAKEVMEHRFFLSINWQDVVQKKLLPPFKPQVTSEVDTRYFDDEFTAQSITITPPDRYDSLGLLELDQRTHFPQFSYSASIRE
Chain of RAC-gamma serine/threonine-protein kinase (Homo sapiens) (Q9Y243 whole entry): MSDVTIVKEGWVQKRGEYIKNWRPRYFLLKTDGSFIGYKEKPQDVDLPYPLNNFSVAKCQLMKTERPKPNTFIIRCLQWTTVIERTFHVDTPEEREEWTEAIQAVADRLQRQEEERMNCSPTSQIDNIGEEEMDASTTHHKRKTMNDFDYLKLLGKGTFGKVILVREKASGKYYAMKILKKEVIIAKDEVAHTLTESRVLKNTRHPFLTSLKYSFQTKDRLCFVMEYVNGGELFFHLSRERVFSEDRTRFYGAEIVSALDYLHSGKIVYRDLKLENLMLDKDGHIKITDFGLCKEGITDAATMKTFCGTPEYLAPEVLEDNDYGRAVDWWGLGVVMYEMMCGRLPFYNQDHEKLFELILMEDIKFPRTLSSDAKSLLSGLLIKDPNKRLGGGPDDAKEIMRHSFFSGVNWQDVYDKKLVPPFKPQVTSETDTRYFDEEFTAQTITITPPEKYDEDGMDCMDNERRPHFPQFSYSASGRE

With `Nc1ncnc2c1ncn2C1CCN(Cc2ccc(-c3ncc(-c4nnn[nH]4)cc3-c3ccccc3)cc2)CC1`, the Activity in data set [1] is 105 nM; in [2] it was 210 nM; in data set [3] it was greater than 50 µM; in [4] it was greater than 50000 nM; in [5], greater than 50000 nM.
As usually defined, the IC50 is the concentration at which inhibition is half-maximal. The low end stands for higher potency, the high end for lower potency. In the case of `Nc1nnc(-c2cnc(-c3ccc(CN4CCC(c5cc(-c6ccncc6)[nH]n5)CC4)cc3)c(-c3ccccc3)c2)s1`, the Activity was determined as 38 nM in data set [1], 123 nM in data set [2], 153 nM in data set [4] and 407 nM in data set [5]. This compound also came in with an IC50 in [6] greater than 50 µM.
For `Nc1ncnc2c1cnn2C1CCN(Cc2ccc(-c3ncc(-c4nc[nH]n4)cc3-c3ccccc3)cc2)CC1` the same measures were 101 nM, 182 nM, 666 nM, 890 nM and greater than 50 µM.
On to `Nc1nnc(-c2cnc(-c3ccc(CNCCC(=O)c4ccccc4N)cc3)c(-c3ccccc3)c2)s1`, for which the Activity amounted to 30 nM in data set [1], 114 nM in data set [2], 472 nM in [4] and 618 nM in data set [5].
On to `Nc1nnc(-c2cnc(-c3ccc(CN4CCC(c5n[nH]c(-c6ccccn6)n5)CC4)cc3)c(-c3ccccc3)c2)s1`, for which the Activity came out at 22 nM in [1], 85 nM in data set [2], 330 nM in data set [4] and 516 nM in data set [5]. For the same compound, the IC50 in data set [6] was greater than 50 µM.
For `Nc1ncnc2c1cnn2C1CCN(Cc2ccc(-c3ncc(-c4ncon4)cc3-c3ccccc3)cc2)CC1` the same measures were 121 nM, 180 nM, 1060 nM, 288 nM and greater than 50 µM.
For `Nc1nnc(-c2cnc(-c3ccc(CN4CCC(n5cc(-c6ccccn6)cn5)CC4)cc3)c(-c3ccccc3)c2)s1` the same measures were 90 nM, 214 nM, 1350 nM, 1350 nM and greater than 50 µM.
Consider `Nc1ncnc2c1cnn2C1CCN(Cc2ccc(-c3ncc(-c4ccccn4)cc3-c3ccccc3)cc2)CC1`, for which the Activity in [1] is 370 nM; in [2] it was 1630 nM; in data set [4], 8110 nM; in data set [5], 10000 nM.
Take `Nc1ncnc2c1cnn2C1CCN(Cc2ccc(-c3ncc(-c4nccs4)cc3-c3ccccc3)cc2)CC1`: the Activity came out at 64 nM in data set [1], 264 nM in data set [2], 3240 nM in data set [4] and 1650 nM in [5]. Besides, the concentration for half-maximal inhibition (IC50) in data set [6] was greater than 50 µM.
For `Nc1ncnc2c1cnn2C1CCN(Cc2ccc(-c3ncc(-c4ncccn4)cc3-c3ccccc3)cc2)CC1` the same measures were 62 nM, 306 nM, 3460 nM, 1950 nM and greater than 50 µM.
`Nc1nnc(-c2cnc(-c3ccc(CN4CCC(n5cc(-c6cnccn6)cn5)CC4)cc3)c(-c3ccccc3)c2)s1`: the Activity in [1] is 51 nM; in data set [2], 172 nM; in [4] it was 2030 nM; in data set [5], 1380 nM. The IC50 in data set [6] was greater than 50 µM.
As for `O=c1[nH]c2ccccc2n1C1CCN(Cc2ccc(-c3ncc(-c4nnn[nH]4)cc3-c3ccccc3)cc2)CC1`, the Activity in data set [1] is 150 nM; in data set [2] it was 273 nM; in data set [3], greater than 50 µM; in data set [4] it was greater than 50000 nM; in data set [5] it was greater than 50000 nM.
On to `N#Cc1cnc(-c2ccc(CN3CCC(n4c(=O)[nH]c5ccccc54)CC3)cc2)c(-c2ccccc2)c1`, for which the Activity in [1] is 3140 nM; in data set [2], 762 nM; in data set [3] it was greater than 50 µM; in [4] it was greater than 50000 nM; in data set [5] it was greater than 50000 nM.
Broadly, the clearance is the volume of plasma or blood freed of the substance per unit of time. A lower clearance goes with inefficient removal. As usually defined, the half-life is the time in which the quantity being followed falls by half. Low readings indicate fast loss, high ones slow loss. Take `Nc1nnc(-c2cnc(-c3ccc(CN4CCC(n5ncc6c(N)ncnc65)CC4)cc3)c(-c3ccccc3)c2)s1`: the Activity worked out at 22 nM in data set [1], 126 nM in data set [2], 416 nM in data set [4] and 621 nM in data set [5]. Further, the concentration for half-maximal inhibition (IC50) in data set [6] is greater than 50 µM; in [8], greater than 10 µM; in data set [10], greater than 10 µM; in data set [12] it was greater than 10 µM. Further, the Vd in data set [7] stood at 0.41 L/kg. Besides, the clearance in [9] is 1.37 mL/min/kg. The same compound gave a half-life in data set [11] of 3.62 h.
In the case of `Nc1nnc(-c2cnc(-c3ccc(CN4CCC(c5cc(-c6ccccn6)[nH]n5)CC4)cc3)c(-c3ccccc3)c2)s1`, the Activity is 28 nM in [1], 95 nM in data set [2], 300 nM in data set [4] and 734 nM in data set [5]. Further, the half-maximal inhibitory concentration (IC50) in data set [6] is greater than 50 µM.
In the case of `Nc1nnc(-c2cnc(-c3ccc(CN4CCC(n5c(=O)[nH]c6ncccc65)CC4)cc3)c(-c3ccccc3)c2)s1`, the Activity in data set [1] was 73 nM; in [2] it was 434 nM; in data set [4] it was 3960 nM; in [5], 12600 nM. This compound gave a 50% inhibitory concentration (IC50) in data set [6] greater than 50 µM.
